From ChEMBL document CHEMBL4342522 (J Med Chem, 2020)

Columns and labels:
SKM-1 = experiment: Antiproliferative activity against human SKM1 cells assessed as reduction in cell viability after 5 days by CellTiter-Glo assay; assay type: functional, cell-based; conditions: SKM-1, 120 h
[1] = biological target: T1, Bromodomain-containing protein 4 (Homo sapiens, UniProt O60885); experiment: biochemical; assay type: cell-based
Description: Inhibition of human N-terminal His6 tagged BRD4 BD1 (57 to 168) residues expressed in Escherichia coli BL21(DE3) cells after 1 hr by TR-FRET assay

[2] = biological target: T1, Bromodomain-containing protein 4; experiment: Inhibition of human N-terminal His6 tagged BRD4 BD2 (352 to 457) residues expressed in Escherichia coli BL21(DE3) cells after 1 hr by TR-FRET assay
NCI-H1299 = experiment: Antiproliferative activity against human H1299 cells assessed as reduction in cell viability after 5 days by CellTiter-Glo assay; assay type: functional, cell-based; conditions: NCI-H1299, 120 h
[3] = Unbound hepatic clearance in human liver microsomes; assay type: ADME, Microsome
[4] = Unbound hepatic clearance in mouse liver microsomes; assay type: ADME, Microsome
[5] = Permeability in dog MDCK cells by PAMPA; assay type: ADME, cell-based, Canis lupus familiaris; conditions: read-out: permeability
[6] = Unbound hepatic clearance in rat liver microsomes; assay type: ADME, Microsome

With CCNC(=O)c1cc2c(-c3cc(S(=O)(=O)CC)ccc3N3CCc4cccc(C)c43)cn(C)c(=O)c2[nH]1 the IC50 (SKM-1) was 0.0042 µM, the Ki [1] was 0.009 µM and the Ki [2] was 0.0005 µM. For the same compound, the IC50 (NCI-H1299) was 0.34 µM.

In the case of CCNC(=O)c1cc2c(-c3cc(NC(=O)OC)ccc3Oc3c(C)cc(F)cc3C)cn(C)c(=O)c2[nH]1, the IC50 (SKM-1) is reported as 0.05 µM, the CL free [3] is reported as 33 L/h/kg and the Ki [1] is reported as 0.29 µM. It also gave a Ki [2] of 0.0029 µM, an IC50 (NCI-H1299) of 2.4 µM and a CL free [4] of 380 L/h/kg. It also gave a Papp [5] of 9.2 nm/s.

With CCNC(=O)c1cc2c(-c3cc(S(C)(=O)=O)ccc3Oc3ccc(F)cc3F)cn(C)c(=O)c2[nH]1 the IC50 (SKM-1) was 0.0066 µM, the CL free [3] was 3.6 L/h/kg and the CL free [6] was < 3.1 L/h/kg. The Ki [2] was 0.0013 µM, the IC50 (NCI-H1299) was 0.37 µM and the CL free [4] was < 5.5 L/h/kg. The Papp [5] was 108 nm/s.

With CCNC(=O)c1cc2c(-c3cc(C(=O)O)ccc3Oc3c(C)cccc3C)cn(C)c(=O)c2[nH]1 the IC50 (SKM-1) was 3.1 µM, the Ki [1] was 0.3 µM and the Ki [2] was 0.0028 µM. The IC50 (NCI-H1299) was > 10 µM and the Papp [5] was 7.4 nm/s.

Compound CCNC(=O)c1cc2c(-c3cc(S(N)(=O)=O)ccc3Oc3c(C)cccc3C)cn(C)c(=O)c2[nH]1 has an IC50 (SKM-1) of 0.007 µM, a Ki [1] of 0.066 µM and a Ki [2] of 0.0011 µM. For the same compound, the IC50 (NCI-H1299) was 3 µM.

With CCNC(=O)c1cc2c(-c3cc(S(=O)(=O)CC)ccc3-c3c(C)cccc3C)cn(C)c(=O)c2[nH]1 the IC50 (SKM-1) was 1.3 µM, the CL free [3] was 33 L/h/kg and the Ki [1] was > 12 µM. The CL free [6] was 37 L/h/kg, the Ki [2] was 0.022 µM and the IC50 (NCI-H1299) was > 10 µM. It also gave a Papp [5] of 90 nm/s.

Cc1cc(F)cc(C)c1Oc1ccc(C(C)(C)O)cc1-c1cn(C)c(=O)c2[nH]c(C(=O)NC(C)(C)C(F)(F)F)cc12 gave an IC50 (SKM-1) of 0.08 µM, a CL free [3] of 570 L/h/kg and a CL free [6] of 1100 L/h/kg. The IC50 (NCI-H1299) was 2.6 µM, the CL free [4] was 2800 L/h/kg and the Papp [5] was 5.7 nm/s.

COc1ccc2c(c1)[C@]13CCCC[C@@H]1[C@H](C2)N(C)CC3 [DEXTROMETHORPHAN] showed a CL free [6] of 7.4 L/h/kg.

Compound CCNC(=O)c1cc2c(-c3cc(NS(=O)(=O)CC)ccc3Oc3c(C)cc(F)cc3C)cn(C)c(=O)c2[nH]1 has an IC50 (SKM-1) of 0.042 µM, a CL free [3] of 19 L/h/kg and a Ki [1] of 0.049 µM. The Ki [2] was 0.0011 µM, the IC50 (NCI-H1299) was 0.97 µM and the CL free [4] was 120 L/h/kg. The Papp [5] was 2.3 nm/s.

CCNC(=O)c1cc2c(-c3cc(S(=O)(=O)CC)ccc3Oc3c(C)cccc3C(C)(C)C)cn(C)c(=O)c2[nH]1 gave an IC50 (SKM-1) of 0.29 µM, a Ki [1] of 0.4 µM and a Ki [2] of 0.015 µM. It also gave an IC50 (NCI-H1299) of 3.2 µM.

Work on Cc1cc(F)cc(C)c1Oc1ccc(C(C)(C)O)cc1-c1cn(C)c(=O)c2[nH]c(C(=O)NC34CC(C3)C4)cc12 yielded an IC50 (SKM-1) of 0.01 µM, a CL free [3] of 120 L/h/kg and a Ki [1] of 0.44 µM. For the same compound, the Ki [2] was 0.0013 µM, the IC50 (NCI-H1299) was 1.1 µM and the CL free [4] was 710 L/h/kg. The Papp [5] was 9.7 nm/s.

For CCNC(=O)c1cc2c(-c3cc(S(=O)(=O)CC)ccc3Oc3ccccc3C(C)(C)C)cn(C)c(=O)c2[nH]1, the IC50 (SKM-1) was 0.021 µM, the CL free [3] was 97 L/h/kg and the Ki [1] was 0.022 µM. The CL free [6] was 86 L/h/kg, the Ki [2] was 0.0021 µM and the IC50 (NCI-H1299) was 0.46 µM. The Papp [5] was 56 nm/s.

CCNC(=O)c1cc2c(-c3cc(CO)ccc3Oc3c(C)cccc3C)cn(C)c(=O)c2[nH]1 gave an IC50 (SKM-1) of 0.065 µM, a CL free [3] of 25 L/h/kg and a Ki [1] of 0.27 µM. The Ki [2] was 0.0017 µM, the IC50 (NCI-H1299) was 3 µM and the CL free [4] was 140 L/h/kg. For the same compound, the Papp [5] was 16.9 nm/s.

Work on CCNC(=O)c1ccc(Oc2c(C)cccc2C)c(-c2cn(C)c(=O)c3[nH]c(C(=O)NCC)cc23)c1 yielded an IC50 (SKM-1) of 0.019 µM, a CL free [3] of 13 L/h/kg and a Ki [1] of 0.13 µM. It also gave a Ki [2] of 0.0018 µM, an IC50 (NCI-H1299) of 1.5 µM and a CL free [4] of 19 L/h/kg. The Papp [5] was 26.3 nm/s.
